Target: Delta-type opioid receptor (Homo sapiens, UniProt P41143)
Assay: DOR agonists, SAR follow-up, image-based (AID 2370)

Delta-type opioid receptor, sequence (P41143 whole entry): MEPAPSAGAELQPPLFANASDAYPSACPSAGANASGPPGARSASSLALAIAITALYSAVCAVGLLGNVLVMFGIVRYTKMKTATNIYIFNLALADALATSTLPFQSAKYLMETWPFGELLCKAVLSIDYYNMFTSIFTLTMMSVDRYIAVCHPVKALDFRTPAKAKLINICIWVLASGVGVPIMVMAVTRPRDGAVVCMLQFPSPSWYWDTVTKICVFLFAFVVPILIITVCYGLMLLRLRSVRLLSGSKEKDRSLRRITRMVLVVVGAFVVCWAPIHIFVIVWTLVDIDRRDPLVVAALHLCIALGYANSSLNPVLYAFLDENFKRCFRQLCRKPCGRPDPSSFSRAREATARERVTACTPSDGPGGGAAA

| Structure (SMILES) | EC50 [µM] |
| --- | --- |
| CCC(N=Nc1ccnc2cc(Cl)ccc12)c1ccc(O)cc1 (configuration not stated) [4-[1-[2-(7-chloroquinolin-4-yl)hydrazinyl]propylidene]cyclohexa-2,5-dien-1-one] | 30.7 |
| Oc1ccc(CN=Nc2ccnc3cc(Cl)ccc23)cc1O [(4Z)-4-[[2-(7-chloroquinolin-4-yl)hydrazinyl]methylidene]-2-hydroxycyclohexa-2,5-dien-1-one] | > 32 |

From BindingDB's records for doi:10.7270/Q2125R3Z (Burnham Center For Chemical Genomics, 2010)
